Data as given in BigSolDB 2.1.

CCCC[n+]1csc2ccccc21.F[P-](F)(F)(F)(F)F
Conditions | solubility (mole fraction)
in furfural, 273.3 K | 0.155
in furfural, 281.45 K | 0.185
in furfural, 288.25 K | 0.205
in furfural, 298.35 K | 0.246
in furfural, 302.93 K | 0.263
in furfural, 311 K | 0.3
in furfural, 317.62 K | 0.333
in furfural, 324.5 K | 0.364
in furfural, 331.25 K | 0.393
in water, 278.15 K | 6.76e-05
in water, 283.2 K | 8.72e-05
in water, 288.1 K | 0.000113
in water, 293.05 K | 0.000139
in water, 298.15 K | 0.000168
in water, 302.95 K | 0.000204
in water, 308.55 K | 0.000237
in water, 313.15 K | 0.000297
in water, 318.1 K | 0.000355
in water, 323 K | 0.000405
in water, 327.95 K | 0.000478
in water, 333.1 K | 0.0006
in water, 338.05 K | 0.000721
in water, 343.1 K | 0.000839
in water, 348 K | 0.001
in water, 353.15 K | 0.00116
in water, 357.9 K | 0.00142
in water, 363 K | 0.00175
in water, 367.9 K | 0.00198

CCCCC[n+]1csc2ccccc21.F[P-](F)(F)(F)(F)F
Conditions | solubility (mole fraction)
in furfural, 272.3 K | 0.085
in furfural, 277.25 K | 0.0866
in furfural, 284.65 K | 0.0981
in furfural, 290.85 K | 0.108
in furfural, 296.15 K | 0.118
in furfural, 302.85 K | 0.131
in furfural, 313.5 K | 0.151
in furfural, 321.04 K | 0.171
in furfural, 324.75 K | 0.189
in furfural, 330 K | 0.214
in furfural, 335.04 K | 0.239
in water, 278.15 K | 2.36e-05
in water, 282.35 K | 2.97e-05
in water, 290.15 K | 4.01e-05
in water, 295.15 K | 4.89e-05
in water, 302.15 K | 6.5e-05
in water, 308.15 K | 8.63e-05
in water, 313.25 K | 0.00011
in water, 318.15 K | 0.00013
in water, 323.15 K | 0.000153
in water, 328.15 K | 0.000189
in water, 330.05 K | 0.000205
in water, 333.15 K | 0.000226
in water, 338.05 K | 0.000259
in water, 342.75 K | 0.000293
in water, 348.15 K | 0.000356
in water, 353.15 K | 0.000466
in water, 357.95 K | 0.000676
in water, 363.15 K | 0.000878
in water, 368.05 K | 0.00109

CCCCCC[n+]1csc2ccccc21.F[P-](F)(F)(F)(F)F
Conditions | solubility (mole fraction)
in furfural, 273.25 K | 0.201
in furfural, 276 K | 0.208
in furfural, 282.04 K | 0.234
in furfural, 290.19 K | 0.269
in furfural, 296.05 K | 0.297
in furfural, 301.03 K | 0.321
in furfural, 305.08 K | 0.345
in furfural, 308.23 K | 0.366
in furfural, 311.95 K | 0.385
in furfural, 315.95 K | 0.406
in furfural, 318.39 K | 0.424
in furfural, 321.62 K | 0.451
in furfural, 325.05 K | 0.479
in furfural, 327.64 K | 0.513
in furfural, 330.95 K | 0.55
in furfural, 333.5 K | 0.581
in furfural, 335.75 K | 0.616
in water, 278.15 K | 3.17e-05
in water, 282.75 K | 3.31e-05
in water, 289.15 K | 4.3e-05
in water, 294.15 K | 5.12e-05
in water, 298.15 K | 6.5e-05
in water, 303.15 K | 7.64e-05
in water, 308.15 K | 9.38e-05
in water, 313.15 K | 0.000109
in water, 318.15 K | 0.000129
in water, 323.15 K | 0.000156
in water, 328.15 K | 0.00021
in water, 330.15 K | 0.000235
in water, 333.05 K | 0.000256
in water, 338.05 K | 0.000322
in water, 342.75 K | 0.000404
in water, 347.95 K | 0.000463
in water, 352.95 K | 0.000543
in water, 357.75 K | 0.000595
in water, 362.95 K | 0.000659
in water, 367.95 K | 0.000743

CCCCCCCC[n+]1csc2ccccc21.F[P-](F)(F)(F)(F)F
Conditions | solubility (mole fraction)
in furfural, 271.1 K | 0.33
in furfural, 274.97 K | 0.35
in furfural, 278.47 K | 0.38
in furfural, 281.46 K | 0.396
in furfural, 285.15 K | 0.423
in furfural, 287.37 K | 0.445
in furfural, 289.48 K | 0.471
in furfural, 292.47 K | 0.5
in furfural, 296.07 K | 0.541
in furfural, 300.95 K | 0.597
in furfural, 305.47 K | 0.64
in furfural, 311.66 K | 0.711
in furfural, 314.97 K | 0.745
in furfural, 318.86 K | 0.786
in furfural, 321.52 K | 0.81
in furfural, 323.8 K | 0.829
in furfural, 327.08 K | 0.858
in water, 278.15 K | 1.79e-05
in water, 283.2 K | 2.1e-05
in water, 290.15 K | 2.61e-05
in water, 294.15 K | 3.12e-05
in water, 300.15 K | 4.01e-05
in water, 308.15 K | 5.5e-05
in water, 313.15 K | 7e-05
in water, 318.15 K | 9.11e-05
in water, 323.15 K | 0.000107
in water, 328.15 K | 0.000128
in water, 333.15 K | 0.000142
in water, 338.15 K | 0.000163
in water, 342.95 K | 0.000179
in water, 348.15 K | 0.000196
in water, 352.75 K | 0.000212
in water, 358.05 K | 0.000235
in water, 363.15 K | 0.000261
in water, 367.75 K | 0.000285

CCCCCCC[n+]1csc2ccccc21.F[P-](F)(F)(F)(F)F
Conditions | solubility (mole fraction)
in furfural, 272.2 K | 0.27
in furfural, 274.55 K | 0.276
in furfural, 280.85 K | 0.297
in furfural, 284.65 K | 0.318
in furfural, 291.71 K | 0.35
in furfural, 296.7 K | 0.38
in furfural, 301.2 K | 0.41
in furfural, 304.21 K | 0.433
in furfural, 307.6 K | 0.451
in furfural, 310.41 K | 0.47
in furfural, 313.72 K | 0.487
in furfural, 315.6 K | 0.503
in furfural, 318.68 K | 0.532
in furfural, 322.88 K | 0.561
in furfural, 325.58 K | 0.582
in furfural, 327.81 K | 0.601
in furfural, 329.99 K | 0.622
in furfural, 331.87 K | 0.644
in water, 278.15 K | 2.26e-05
in water, 282.35 K | 2.91e-05
in water, 288.15 K | 3.5e-05
in water, 294.15 K | 4.2e-05
in water, 300.15 K | 5.5e-05
in water, 308.15 K | 7.07e-05
in water, 313.05 K | 8.48e-05
in water, 318.15 K | 0.000106
in water, 323.15 K | 0.000124
in water, 328.15 K | 0.000155
in water, 333.15 K | 0.000186
in water, 338.05 K | 0.00023
in water, 342.75 K | 0.000272
in water, 348.45 K | 0.000311
in water, 353.15 K | 0.000357
in water, 358.15 K | 0.00041
in water, 363.35 K | 0.000464
in water, 368.55 K | 0.000521
